# Experimental data from patent US20120295349A1, “MAMMAL DEDICATED CELL LINE FROM HUMAN HEPATOCELLULAR CARCINOMA CELL” (Institute of Nuclear Energy Research Atomic Energy Council, …, priority 2009, published 2012).
# Legend:
# Type in all cases: cell-based, human
# [1] = tested on: HepG2 NF-κB/Luc/sr39tk cells; experiment: Cytotoxic effect of GCV on HepG2 NF-κB/Luc/sr39tk cells (WST-1 cell survival); details: GCV 0.001-500 μM, 96 h
# Method: HepG2 NF-κB/luc/sr39tk was cultured at 3000 cells/well in 96 well plate format to attach the cells onto the plate, then drug-treated for 48 h with different concentrations of GCV at 0.001, 0.01, 0.1, 1, 50, 100 and 500 μM respectively, and then treated with fresh culture media containing GCV drug, and after 96 h of experiment, the culture media containing GCV drug was removed, then chromogenic reaction was carried out with WST-1 at 37° C. for 2 h, and finally analyzed by enzyme-linked immunosorbent assay (ELISA) at wavelengths of 450 nm and 620 nm respectively and plotted to obtain cell survival rate for calculation of cytotoxic effect of drug.
# [2] = tested on: HepG2 NF-κB/Luc/sr39tk cells; experiment: 131I-FIAU uptake experiment in co-transformed HepG2 NF-κB/Luc/sr39tk cells; details: reacted 2 h
# Method: (§1) This experiment is provided to analyze uptake of 131I-FIAU drug by HepG2 NF-κB/Luc/sr39tk transformed cells. HepG2 NF-κB/Luc/sr39tk transformed cells were cultured overnight in a 6-well plate at 1×10^6 cells/well to attach the cells onto the plate. Then, 1 ml/well of labeled ^131I-FIAU was added into the cells and reacted for 2 h, and then the cells was washed with ice-cold PBS to quench the drug reaction, and detected for radioactivity. FIG. 4 is uptake effect of ^131I-FIAU in HepG2 NF-κB/Luc/sr39tk cell, in which X axis represents different transformed cell line; and Y axis is uptake amount of ^131I-FIAU per 0.1 million cells.
# HepG2 cells = experiment: 131I-FIAU uptake experiment in HepG2 cells; details: reacted 2 h
# Method: as §1
# HepG2 NF-κB/Luc cells = experiment: 131I-FIAU uptake experiment in HepG2 NF-κB/Luc cells; details: reacted 2 h
# Method: as §1
SMILES,cytotoxic effect (cell survival rate) compared with control group (HepG2) ([1]; 1—18 cell line),cytotoxic effect (cell survival rate) compared with control group (HepG2) ([1]; 2—24 cell line),uptake amount of 131I-FIAU per 0.1 million cells ([2]; 1—17 cell line),uptake amount of 131I-FIAU per 0.1 million cells ([2]; 1—18 cell line),uptake amount of 131I-FIAU per 0.1 million cells ([2]; 1—34 cell line),uptake amount of 131I-FIAU per 0.1 million cells ([2]; 2—24 cell line),uptake amount of 131I-FIAU per 0.1 million cells ([2]; 2—27 cell line),uptake efficiency for 131I-FIAU (HepG2 cells),uptake efficiency for 131I-FIAU (HepG2 NF-κB/Luc cells)
"Nc1nc(O)c2ncn(COC(CO)CO)c2n1 [GCV, ganciclovir]",obvious cytotoxic effect,obvious cytotoxic effect,–,–,–,–,–,–,–
O=c1[nH]c(=O)n([C@@H]2O[C@H](CO)[C@@H](O)[C@@H]2F)cc1[131I] [131I-FIAU],–,–,20.1±0.41%,41.5±1.00%,27.2±1.07%,22.9±0.68%,12.9±0.45%,very low uptake efficiency,very low uptake efficiency
